SMILES strings stand for the structures. Structures can show the parent of a compound that is named as a salt.

The nature of the data set: RP, Phenomenex Kinetex C18, 100 × 2.1 mm, 1.7 µm, 40 °C, 0.5 mL/min, estimated dead time 0.44 min; A: water + 1 mM ammonium fluoride; B: acetonitrile; gradient (min/%B) 0/10 2/10 22/100 27/100 27.1/10. The settings on record: stereoisomer not certain.
`CC(CCC(=O)NCC(=O)O)C1CCC2C3C(O)CC4CC(O)CCC4(C)C3CC(O)C12C` (configuration not stated) [Glycocholic acid]: the LC retention time was 6.87 min.

For the compound `CC(CC(=O)O)C1CCC2C3CCC4CC(O)CCC4(C)C3CC(O)C12C` (configuration not stated) [Nor-Desoxycholic Acid], the LC retention time is 9.58 min.

For the compound `CCCCCCCCCC(=O)O` [Decanoic acid], the LC retention time was 10.3 min.

Turning to `CC(CCC(=O)NCCS(=O)(=O)O)C1CCC2C3CCC4CC(O)CCC4(C)C3CC(O)C12C` (configuration not stated) [Taurodeoxycholic acid], the LC retention time was 8.04 min.

Consider `CC(CCC(=O)NCC(=O)O)C1CCC2C3CCC4CC(O)CCC4(C)C3CC(O)C12C` (configuration not stated) [Glycodeoxycholic acid], for which the LC retention time was 7.98 min.

As to `CC(CCC(=O)NCC(=O)O)C1CCC2C3C(=O)CC4CC(=O)CCC4(C)C3CC(=O)C12C` (configuration not stated) [Glycodehydrocholic acid], the LC retention time is 5.21 min.

Turning to `CC(CCC(=O)NCC(=O)O)C1CCC2C3CC(O)C4CC(O)CCC4(C)C3CCC12C` (configuration not stated) [Glycohyodeoxycholic Acid], the LC retention time is 6.88 min.

Regarding `CC(CCCC(C)C1CCC2C3=CCC4CC(=O)C=CC4(C)C3CCC21C)C(=O)O` [(25S)-d1,7-Dafachronic acid], the LC retention time was 14.4 min.

As for `CCCCCCCCCCCCCCCCCCCC(=O)O` [Arachidic acid], the LC retention time was 20.3 min.

For the compound `CC(CCC(=O)NCCS(=O)(=O)O)C1CCC2C3CCC4CC(O)CCC4(C)C3CCC12C` (configuration not stated) [Taurolithocholic acid], the LC retention time was 9.12 min.

On to `CC(CCC(=O)NCCS(=O)(=O)O)C1CCC2C3C(O)CC4CC(O)CCC4(C)C3CC(O)C12C` (configuration not stated) [Taurocholic acid], for which the LC retention time was 6.97 min.

As to `CC(CCC(=O)O)C1CCC2C3C(=O)CC4CC(O)CCC4(C)C3CCC12C` (configuration not stated) [Nutriacholic Acid], the LC retention time was 9.67 min.

On to `C[C@H](CCC(=O)O)[C@H]1CC[C@H]2[C@@H]3CC[C@@H]4CC(=O)CC[C@]4(C)[C@H]3CC[C@]12C` [3-Oxo-5beta-cholanoic Acid], for which the LC retention time was 13.4 min.

As to `CC(CCC(=O)O)C1CCC2C3C(=O)CC4CC(=O)CCC4(C)C3CC(=O)C12C` (configuration not stated) [Dehydrocholic acid], the LC retention time is 7.14 min.

Consider `CC(CCC(=O)O)C1CCC2C3CCC4CC(O)CCC4(C)C3CCC12C` (configuration not stated) [Lithocholic acid], for which the LC retention time is 13.1 min.

Regarding `CC(CCCC(C)C1CCC2C3C(O)CC4=CC(=O)CCC4(C)C3CCC12C)C(=O)O` (configuration not stated) [7-Hydroxy-3-oxo-Cholest-4-en-26-oic Acid], the LC retention time was 12 min.

In the case of `CC(CCCC(C)C1CCC2C3CCC4CC(=O)C=CC4(C)C3CCC12C)C(=O)O` [(25S)-d1-Dafachronic acid], the LC retention time is 15.9 min.

Turning to `CC(CCC(=O)O)C1CCC2C3C(O)CC4CC(O)CCC4(C)C3CC(=O)C12C` (configuration not stated) [12-Ketochenodeoxycholic acid], the LC retention time was 7.88 min.

In the case of `CC(CCCC(C)C1CCC2C3CCC4=CC(=O)C=CC4(C)C3CCC12C)C(=O)O` [(25S)-d1,4-Dafachronic acid], the LC retention time was 14.5 min.

`CC(CCCC(C)C1CCC2=C3C=CC4=CC(=O)CCC4(C)C3CCC21C)C(=O)O` [(25S)-d4,6,8(14)-Dafachronic acid]: the LC retention time is 14.3 min.

On to `CC(CCC(=O)NCC(=O)O)C1CCC2C3CCC4CC(O)CCC4(C)C3CCC12C` (configuration not stated) [Glycolithocholic Acid sodium salt], for which the LC retention time is 9.22 min.

On to `CC(CCCC(C)C1CCC2=C3CCC4CC(=O)CCC4(C)C3CCC21C)C(=O)O` [(25S)-d8(14)-Dafachronic acid], for which the LC retention time was 15.9 min.

These data come from the RepoRT retention time repository.
